Experimental findings from paper PMC6273168, “Synthesis and Biological Evaluation of Novel 4-Morpholino-7,8-dihydro-5H-thiopyrano[4,3-d]pyrimidine Derivatives Bearing Phenylpyridine/ Phenylpyrimidine-Carboxamides” (Molecules, 2016) are described below.

One series has as its target PI3Kα (Homo sapiens, UniProt P42336). As to the kind of experiment: PI3Kα Kinase-Glo Luminescent Kinase Assay. Type of series: biochemical. For orientation: In Kinase-Glo more light means more ATP remaining.
The subject of series [1] is A549 (human lung cancer) cell line. Description: MTT cell proliferation (cytotoxicity) assay, A549. The format is cell-based. The conditions noted are these: Homo sapiens, A549, 72 h, average of two separate determinations. The protocol:
(§1) Taking GDC-0941 as reference compound, the target compounds […], 12a–j, 13a–g and 14a–g ere evaluated for the cytotoxicity against the three cancer cell lines A549, PC-3 and MCF-7 usg 3-(4,5-dimethylthiazolyl-2)-2,5-diphenyltetrazolium bromide (MTT) cell proliferation assays. In addition, one selected compounds 12h was fher evaluated for PI3Kα kinase inhibitory activity. The results, expressed as IC50 values or inhibitory rate, are sumrized in Table 1, Table 2 and Table 3.
(§2) The in vitro cytotoxic activities of all the compounds 11a–11j, 12a–12j, 13a–13g and 14a–14g was evaluated with A549, PC-3 and MCF-7 cell lines by the standard MTT assay, with GDC-0941 as positive control. The cancer cell lines were cultured in minimum essential medium (MEM) supplement with 10% fetal bovine serum (FBS). Approximately 4 × 10^3 cells, suspended in MEM medium, were plated onto each well of a 96-well plate and incubated in 5% CO2 at 37 °C for 24 h. The test compounds at indicated final concentrations were added to the culture medium and the cell cultures were continued for 72 h. Fresh MTT was added to each well at a terminal concentration of […] and incubated with cells at 37 °C for 4 h. The formazan crystals were dissolved in 100 µL DMSO each well, and the absorbency at 492 nm (for absorbance of MTT formazan) and 630 nm (for the reference wavelength) was measured with an ELISA reader. All of the compounds were tested three times in each of the cell lines. The results expressed as inhibition rates or IC50 (half-maximal inhibitory concentration) were the averages of two determinations and calculated by using the Bacus Laboratories Inc. Slide Scanner (Bliss) software (the Bacus Laboratories Inc. Slide Scanner (BLISS) system, Lombard, IL, USA).

Series [2] concerns MCF-7 (human breast cancer) cell line. Description: MTT cell proliferation (cytotoxicity) assay, MCF-7. The format is cell-based. The note with it: Homo sapiens, MCF7, 72 h, average of two separate determinations. How it is done:
as §1, §2

Series [3] concerns PC-3 (human prostatic cancer) cell line. As to the kind of experiment: MTT cell proliferation (cytotoxicity) assay, PC-3. The format is cell-based. The conditions noted are these: Homo sapiens, 72 h, average of two separate determinations. The protocol: as §1, §2

Sequence of PI3Kα (P42336 whole entry): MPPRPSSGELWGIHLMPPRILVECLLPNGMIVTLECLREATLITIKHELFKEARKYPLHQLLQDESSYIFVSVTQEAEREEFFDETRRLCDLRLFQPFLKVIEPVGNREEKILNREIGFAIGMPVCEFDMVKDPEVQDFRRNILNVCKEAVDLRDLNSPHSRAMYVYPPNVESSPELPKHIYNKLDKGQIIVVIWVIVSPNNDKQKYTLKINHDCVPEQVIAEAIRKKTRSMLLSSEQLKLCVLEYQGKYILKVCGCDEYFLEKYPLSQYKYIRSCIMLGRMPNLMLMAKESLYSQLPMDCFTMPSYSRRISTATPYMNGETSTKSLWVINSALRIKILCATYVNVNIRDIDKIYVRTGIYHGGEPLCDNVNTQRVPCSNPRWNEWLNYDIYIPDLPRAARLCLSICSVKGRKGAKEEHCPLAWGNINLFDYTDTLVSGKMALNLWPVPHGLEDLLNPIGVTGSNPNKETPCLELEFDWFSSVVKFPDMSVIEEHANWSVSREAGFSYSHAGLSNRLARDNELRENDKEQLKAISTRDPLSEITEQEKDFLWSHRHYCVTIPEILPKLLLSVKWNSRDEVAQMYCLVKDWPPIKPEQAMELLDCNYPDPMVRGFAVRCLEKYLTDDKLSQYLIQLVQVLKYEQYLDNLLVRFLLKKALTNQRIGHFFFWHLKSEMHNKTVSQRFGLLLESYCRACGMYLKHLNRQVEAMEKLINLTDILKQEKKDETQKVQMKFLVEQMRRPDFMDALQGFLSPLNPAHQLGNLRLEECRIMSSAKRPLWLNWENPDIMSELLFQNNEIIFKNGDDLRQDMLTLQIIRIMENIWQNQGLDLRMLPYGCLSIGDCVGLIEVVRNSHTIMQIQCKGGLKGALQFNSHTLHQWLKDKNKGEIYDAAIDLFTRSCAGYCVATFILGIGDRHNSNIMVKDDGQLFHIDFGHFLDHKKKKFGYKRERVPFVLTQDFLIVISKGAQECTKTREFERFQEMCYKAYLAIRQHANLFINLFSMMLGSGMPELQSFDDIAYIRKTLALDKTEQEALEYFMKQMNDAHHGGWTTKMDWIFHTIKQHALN
Sequence of PI3Kα (P27986 whole entry partner): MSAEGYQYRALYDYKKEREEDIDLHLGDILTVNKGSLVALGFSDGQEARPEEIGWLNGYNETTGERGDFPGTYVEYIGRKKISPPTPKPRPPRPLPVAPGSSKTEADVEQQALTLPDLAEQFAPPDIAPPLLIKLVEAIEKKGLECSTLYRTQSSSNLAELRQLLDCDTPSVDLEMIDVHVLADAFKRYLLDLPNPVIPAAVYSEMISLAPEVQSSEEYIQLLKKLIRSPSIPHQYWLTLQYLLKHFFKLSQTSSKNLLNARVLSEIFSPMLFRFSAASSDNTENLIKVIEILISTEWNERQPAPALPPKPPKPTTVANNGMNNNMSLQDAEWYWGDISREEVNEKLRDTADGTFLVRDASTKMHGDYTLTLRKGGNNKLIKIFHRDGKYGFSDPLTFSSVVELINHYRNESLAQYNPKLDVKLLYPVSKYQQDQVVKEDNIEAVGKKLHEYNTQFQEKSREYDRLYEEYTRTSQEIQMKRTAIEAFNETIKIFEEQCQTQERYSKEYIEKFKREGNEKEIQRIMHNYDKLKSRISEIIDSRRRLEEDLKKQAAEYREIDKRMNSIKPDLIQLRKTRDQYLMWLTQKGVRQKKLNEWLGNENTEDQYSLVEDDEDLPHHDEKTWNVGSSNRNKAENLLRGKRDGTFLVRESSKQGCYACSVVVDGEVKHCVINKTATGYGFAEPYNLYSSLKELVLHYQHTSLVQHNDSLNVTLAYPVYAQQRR

For `CCc1ccc(-c2ccnc(C(=O)Nc3ccc(-c4nc5c(c(N6CCOCC6)n4)CS(=O)(=O)CC5)cc3)c2)cc1` [Compound 12h, N-(4-(4-Morpholino-7,8-dihydro-6,6-dioxide-5H-thiopyrano[4,3-d]pyrimidin-2-yl)phenyl)-4-(4-ethylphenyl) picolinamide], the melting point (commonly the temperature of the solid-liquid transition) was 276.8 to 279.1 °C. Further, the IC50 (in general, the midpoint of a concentration-inhibition curve) on PI3Kα (Kinase-Glo, 1 µM ATP, 60 min, average of two separate determinations) was found to be 7.39 ± 0.194 µM. Besides, the “inhibitory rate against PI3Ka kinase” value against PI3Kα (at 10 µM, in words) is “moderate”. In series [1] (Table 1), the 50% inhibitory concentration (IC50) came out at 8.37 ± 0.1 µM. Half-maximal inhibition in series [2] (Table 1) (IC50) required 9.26 ± 0.82 µM. For the same compound, in series [3] (Table 1), the midpoint of inhibition, the IC50, lay at 11.34 ± 0.11 µM.
`O=C(Nc1ccc(-c2nc3c(c(N4CCOCC4)n2)CSCC3)cc1)c1cc(-c2ccc(Br)cc2)ncn1` [Compound 13e] came in with a melting point of 251.8 to 255 °C. The same compound yielded an IC50 in series [1] (Table 2) of more than 100 µM. In series [2] (Table 2), this compound showed an IC50 of more than 100 µM. Further, the 50% inhibitory concentration (IC50) in series [3] (Table 2) was more than 100 µM.
The compound `COc1ccc(-c2cc(C(=O)Nc3ccc(-c4nc5c(c(N6CCOCC6)n4)CSCC5)cc3)ncn2)cc1` [Compound 13b] returned a melting point of 210 to 212.7 °C. The same compound returned an IC50 in series [1] (Table 2) of more than 100 µM. Further, the IC50 in series [2] (Table 2) was more than 100 µM. The same compound registered a half-inhibitory concentration (IC50) in series [3] (Table 2) of more than 100 µM.
On to `Cc1ccc(-c2ccnc(C(=O)Nc3ccc(-c4nc5c(c(N6CCOCC6)n4)CS(=O)(=O)CC5)cc3)c2)cc1` [Compound 12g, N-(4-(4-Morpholino-7,8-dihydro-6,6-dioxide-5H-thiopyrano[4,3-d]pyrimidin-2-yl)phenyl)-4-(4-methylphenyl) pyridinecarboxamide], for which the melting point was 290.2 to 293.1 °C. Inhibition in series [1] (Table 1) was half-maximal at 14.51 ± 0.1 µM (IC50). Moreover, the concentration for half-maximal inhibition (IC50) in series [2] (Table 1) was 28.9 ± 1.29 µM. In series [3] (Table 1), this compound showed an IC50 of 64.71 ± 0.17 µM.
`O=C(Nc1ccc(-c2nc3c(c(N4CCOCC4)n2)CS(=O)(=O)CC3)cc1)c1cc(-c2ccc(F)cc2)ncn1` [Compound 14d]: the melting point was more than 300 °C. The same compound returned a half-maximal inhibitory concentration (IC50) in series [1] (Table 2) of more than 100 µM. The compound further showed an IC50 in series [2] (Table 2) of more than 100 µM. The same compound returned an IC50 in series [3] (Table 2) of more than 100 µM.
As for `COc1ccc(-c2ccnc(C(=O)Nc3ccc(-c4nc5c(c(N6CCOCC6)n4)CSCC5)cc3)c2)cc1` [Compound 11i, N-(4-(4-Morpholino-7,8-dihydro-5H-thiopyrano[4,3-d]pyrimidin-2-yl)phenyl)-4-(4methoxyphenyl) pyridine-carboxamide], the melting point fell in the range of 233.6 to 235.1 °C. Moreover, 27.68 ± 0.1 µM corresponded to half-maximal inhibition in series [1] (Table 1) (IC50). Further, half-maximal inhibition in series [2] (Table 1) (IC50) was put at 32.4 ± 1.84 µM. In series [3] (Table 1), the concentration for half-maximal inhibition (IC50) came to 65.66 ± 0.61 µM.
